# Source: US8513423B2 (Janssen Pharmaceutica, NV, priority 2010, dated 2013)
# Tests used:
# [1] = tested on: CFA-induced paw radiant heat hypersensitivity; assay: CFA-induced paw radiant heat hypersensitivity; format: in vivo; conditions: rat; 30 mg/kg, p.o.; last time point 300 min; group mean values, maximum % reversal at any time point
# Procedure: Each rat was placed in a test chamber on a warm glass surface and allowed to acclimate for approximately 10 min. A radiant thermal stimulus (beam of light) was focused through the glass onto the plantar surface of each hind paw in turn. The thermal stimulus was automatically shut off by a photoelectric relay when the paw was moved or when the cut-off time was reached (20 sec for radiant heat at ˜5 amps). An initial (baseline) response latency to the thermal stimulus was recorded for each animal prior to the injection of complete Freund's adjuvant (CFA). Twenty-four hours following intraplantar CFA injection, the response latency of the animal to the thermal stimulus was re-evaluated and compared to the animal's baseline response time. […] Post-compound treatment withdrawal latency was assessed at fixed time intervals, typically 30, 60, 120, 180, and 300 min.
# The percent reversal (% R) of hypersensitivity was calculated in one of two different ways: 1) using group mean values or 2) using individual animal values. […]
# Method 1. For all compounds, the % R of hypersensitivity was calculated using the mean value for groups of animals at each time point according to the following formula: % reversal=[(group treatment response−group CFA response)/(group baseline response−group CFA response)]×100 Results are given for the maximum % reversal observed for each compound at any time point tested. […]
# [2] = molecular target: T1, MGL (Rattus norvegicus, UniProt Q8R431); assay: 2-AG accumulation assay in rat brain homogenate; format: biochemical; conditions: compound @1 μM, read-out: Rat Brain 2AG % VehCntrl (%) @1 μM
# T1 construct: one g rat brain was homogenized; from tissue; host or cells: rat brain homogenate
# T1 sequence (Q8R431 1-303): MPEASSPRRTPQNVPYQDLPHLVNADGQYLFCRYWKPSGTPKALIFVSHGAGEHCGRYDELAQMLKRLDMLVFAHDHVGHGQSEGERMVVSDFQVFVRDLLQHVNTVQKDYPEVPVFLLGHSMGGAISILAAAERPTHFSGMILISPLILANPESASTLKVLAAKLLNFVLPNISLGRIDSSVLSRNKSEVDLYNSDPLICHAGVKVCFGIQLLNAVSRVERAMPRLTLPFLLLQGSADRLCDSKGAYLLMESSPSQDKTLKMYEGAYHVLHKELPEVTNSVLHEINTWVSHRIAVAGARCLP
# In short: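 Inhibition of rat MGL was assessed by measuring 2-AG build-up in brain homogenate. After a 15-min preincubation at 37° C., 10 mM CaCl2 was added and the 5 mL reaction ran 15 min more at 37° C. It was quenched with 6 mL 2:1 chloroform/methanol, extracted 2-AG was measured by HPLC/MS, and accumulation with compound was expressed as a percentage of vehicle.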
Compound,Method 1: peak % reversal [1] [%],"2-AG accumulation, percent of vehicle control at 1 µM [2] [%]"
"Cc1c(C(=O)N2CC(C3CCN(C(=O)c4nccs4)CC3)C2)sc2cc(C(F)(F)F)ccc12 [Cpd 20, 4-(1-{[3-Methyl-6-(trifluoromethyl)-1-benzothiophen-2-yl]carbonyl}azetidin-3-yl)-1-(1,3-thiazol-2-ylcarbonyl)piperidine]",−6.7,728
"O=C(c1nccs1)N1CCC(C2CN(C(=O)c3sc4cc(C(F)(F)F)ccc4c3Cl)C2)CC1 [Cpd 29, 4-(1-{[3-Chloro-6-(trifluoromethyl)-1-benzothiophen-2-yl]carbonyl}azetidin-3-yl)-1-(1,3-thiazol-2-ylcarbonyl)piperidine]",17.9,800
